Experiments:
[1] = Pharmacokinetic test of plasma and tumor of tumor-bearing nude mice; format: in vivo; settings: tumor-bearing nude mice, p.o. 30 mg/kg; for Kp: female, mouse, tumor/plasma, po, read-out: Tumor plasma ratio
Procedure: Test Embodiment 7. Pharmacokinetic Test of Plasma and Tumor of Tumor-Bearing Nude Mice
Taking tumor-bearing nude mice as the test animals, the pharmacokinetic behavior in the plasma and tumor of tumor-bearing nude mice of the following compound embodiments was studied when orally administered at a dose of 30 mg/kg.
Tumor-bearing nude mouse 21/embodiment, female, Shanghai B&K Laboratory Animal Co., Ltd., animal production license number (SCXK (Shanghai) 2013-0006 No. 311620400001794).
0.5% HPMC (1% Tween 80), dissolved by sonication, to prepare a clear solution or a homogeneous suspension.
Tumor-bearing nude mice, female; p.o. after overnight fasting, respectively, at a dose of 30 mg/kg, administered in a volume of 10 mL/kg.
Before and after administration of tumor-bearing nude mice, at 0, 1, 2, 4, 6, 8, 16 and 24 hours, 0.1 mL of blood was collected from the orbit, placed in an EDTA-K2 test tube, and centrifuged at 6000 rpm at 4° C. for 6 min to separate the plasma. After dissection, the tumor tissue was weighed and stored at −80° C.
1) Tumor tissue was homogenized with methanol and water at a ratio of 1:3, and then centrifuged to get the supernatant. 40 μL of tumor homogenate supernatant and 40 μL of plasma sample were added to 160 μL of acetonitrile for precipitation, and after mixing, centrifuged at 3500×g for 5 to 20 minutes.
2) 100 μL of the supernatant solution after treatment was taken for LC/MS/MS to analyze the concentration of the compounds to be tested.
2.7 Liquid Phase Analysis • Liquid phase condition: Shimadzu LC-20AD pump • MS conditions: AB Sciex API 4000 Mass Spectrometer • Chromatographic column: phenomenex Gemiu 5 μm C18 50×4.6 mm • Mobile phase: A solution was aqueous 0.1% formic acid solution, B solution was acetonitrile • Flow rate: 0.8 mL/min • Elution time: 0 to 4.0 minutes, the eluent was as follows:
The main parameters of pharmacokinetics were calculated with WinNonlin 8.2, and the results of the tumor-bearing nude mice pharmacokinetic experiments were shown in the following table: […]

[2] = tested on: C57 mice subcutaneous xenografts tumor of MC38-hPDL1 cells; test: Tumor inhibition experiment on MC38-hPDL1 xenograft model; format: in vivo
Procedure: Test Embodiment 10. Tumor Inhibition Experiment on MC38-hPDL1 Xenograft Model
To evaluate the antitumor activity of the test compounds against C57 mice subcutaneous xenografts tumor of MC38-hPDL1 cells.
MC38-hPDL1 cells were taken out from the cell bank, added to DMEM medium (DMEM+10% FBS) after recovery, and placed in a CO2 incubator (incubator temperature was 37° C., CO2 concentration was 5%) to culture. MC38-hPDL1 cells were collected when the number of cells increased to the required number of inoculation in vivo. Counted with an automatic cell counter, and resuspend the cells with PBS according to the counting results to prepare a cell suspension (density was 1×10^6/mL), and placed in an ice box for use.
6-8-week-old female C57 mice weighing approximately 18-22 grams were used. Mice were housed in SPF animal room, single cage, 4-5 mice per cage. All cages, litter and water were sterilized at high temperature before use, and all animals had free access to food and water. Before the start of the experiment, C57 mice were marked with a disposable ear tag for rats and mice, and the skin of the inoculation site was disinfected with 75% alcohol before inoculation. Each mouse was subcutaneously inoculated with 0.1 mL (containing 1*10^5 cells) of MC38-hPDL1 cells on the right back. […] […] Tumor volume was measured twice a week and mice were weighed twice a week, and tumor TGI (%) was calculated.
Tumor volume (mm^3), the calculation formula was: V=0.5*D*d*d, wherein D and d were the long and short diameters of the tumor, respectively.
When the tumor regressed, TGI(%)=[1−(average tumor volume at the end of administration of a treatment group-average tumor volume at the beginning of administration of this treatment group)/average tumor volume at the beginning of administration of this treatment group]×100%.

hERG potassium channel = target: T1, hERG potassium channel (Homo sapiens, UniProt Q12809); test: Inhibitory activity test of hERG potassium channel (Qpatch, CHO-hERG cells); format: cell-based; settings: 6 concentrations up to 40 μM
T1 construct: expressed in transfected cells; host or cells: CHO-hERG cells
Procedure: Test Embodiment 9. Inhibitory Activity Test of hERG Potassium Channel
1.1 CHO-hERG cells were cultured in a 175 cm^2 culture flask. When the cell density reached 60 to 80%, the culture medium was removed, washed with 7 mL of PBS, and then digested with 3 mL of Detachin.
1.2 After the digestion was completed, 7 mL of culture medium was added to neutralize, then centrifuged, and the supernatant was aspirated, and 5 mL of culture medium was added to resuspend to ensure the cell density was 2 to 5×10^6/mL.
Single-cell high-impedance sealing and whole-cell pattern formation were all performed automatically by the Qpatch instrument. After the whole-cell recording pattern was obtained, the cell was clamped at −80 mV, before a +40 mV depolarizing stimulus for 5 s was given, a pre-voltage of −50 mV for 50 ms was given, then repolarized to −50 mV for 5 s, and then returned to −80 mV. This voltage stimulus was applied every 15 seconds, and recorded for 2 minutes, then the extracellular solution was given and then recorded for 5 minutes. Then the dosing process was started. The compound concentration started from the lowest test concentration, and each test concentration was administered for 2.5 minutes. After all concentrations were continuously administered, the positive control compound 3 μM Cisapride was administered. […]
The experimental data was analyzed by XLFit software.

T1 sequence (Q12809 whole entry): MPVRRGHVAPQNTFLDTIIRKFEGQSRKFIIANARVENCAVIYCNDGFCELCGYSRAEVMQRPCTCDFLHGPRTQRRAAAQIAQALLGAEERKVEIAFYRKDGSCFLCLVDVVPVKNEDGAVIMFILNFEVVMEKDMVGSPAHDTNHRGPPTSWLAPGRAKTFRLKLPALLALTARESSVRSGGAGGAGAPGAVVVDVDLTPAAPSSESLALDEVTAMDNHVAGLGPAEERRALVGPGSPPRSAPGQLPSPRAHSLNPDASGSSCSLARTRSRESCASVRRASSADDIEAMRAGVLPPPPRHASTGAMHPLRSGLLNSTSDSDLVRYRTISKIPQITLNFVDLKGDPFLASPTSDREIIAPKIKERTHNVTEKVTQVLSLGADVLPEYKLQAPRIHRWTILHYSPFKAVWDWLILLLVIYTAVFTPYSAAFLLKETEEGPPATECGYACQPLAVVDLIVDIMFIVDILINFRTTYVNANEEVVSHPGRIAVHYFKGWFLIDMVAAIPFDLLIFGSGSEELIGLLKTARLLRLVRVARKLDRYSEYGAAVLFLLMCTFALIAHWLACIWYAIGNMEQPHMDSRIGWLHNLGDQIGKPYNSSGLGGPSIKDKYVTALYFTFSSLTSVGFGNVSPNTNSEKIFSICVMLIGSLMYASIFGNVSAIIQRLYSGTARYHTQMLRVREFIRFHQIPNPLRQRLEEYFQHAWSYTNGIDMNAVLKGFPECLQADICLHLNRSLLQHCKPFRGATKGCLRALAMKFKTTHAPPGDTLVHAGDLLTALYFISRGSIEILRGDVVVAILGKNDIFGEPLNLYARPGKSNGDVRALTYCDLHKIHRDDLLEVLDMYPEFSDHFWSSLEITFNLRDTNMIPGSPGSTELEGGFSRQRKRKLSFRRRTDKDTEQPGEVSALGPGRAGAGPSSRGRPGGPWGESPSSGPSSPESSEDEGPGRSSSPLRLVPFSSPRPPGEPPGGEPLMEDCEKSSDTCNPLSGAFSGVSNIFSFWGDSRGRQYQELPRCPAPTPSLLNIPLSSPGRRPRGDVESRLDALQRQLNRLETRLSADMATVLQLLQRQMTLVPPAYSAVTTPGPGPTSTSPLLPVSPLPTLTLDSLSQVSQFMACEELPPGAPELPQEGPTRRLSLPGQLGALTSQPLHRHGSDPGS

For `COc1nc(-c2cccc(-c3cccc(NC(=O)c4nc5c(n4C)CCN(C)C5)c3Cl)c2Cl)ccc1CN[C@H]1CCOC[C@@H]1O` (relative stereo) [Embodiment 175, N-(2,2′-Dichloro-3′-(5-((((3,4-trans)-3-hydroxytetrahydro-2H-pyran-4-yl)amino)methyl)-6-methoxypyridin-2-yl)-[1,1′-biphenyl]-3-yl)-1,5-dimethyl-4,5,6,7-tetrahydro-1H-imidazo[4,5-c]pyridine-2-carboxamide], the Kp [1] was 2.1, the “Drug concentration in plasma” value [1] was 485 ng/mL and the “Drug concentration in tumor” value [1] was 1009 ng/mL.

For `COc1nc(-c2cccc(-c3cccc(NC(=O)c4nc5c(n4C)CCN(C)C5)c3Cl)c2Cl)ccc1CNC1COC1` [Embodiment 114, N-(2,2′-Dichloro-3′-(6-methoxy-5-((oxetan-3-ylamino)methyl)pyridin-2-yl)-[1,1′-biphenyl]-3-yl)-1,5-dimethyl-4,5,6,7-tetrahydro-1H-imidazo[4,5-c]pyridine-2-carboxamide], the “TGI (%) Day 15” value ([2]; 60 mpk po bid, n=7) was 74.92%, the “Tumor volume (mm^3, Mean ± SD) Day 1” value ([2]; 60 mpk po bid, n=7) was 69.72 ± 21.92 mm^3 and the “Tumor volume (mm^3, Mean ± SD) Day 14” value ([2]; 60 mpk po bid, n=7) was 140.27 ± 77.92 mm^3. The “ΔT/ΔC (%) Day 15” value ([2]; 60 mpk po bid, n=7) was 25.08%.

In the case of `COc1nc(-c2cccc(-c3cccc(NC(=O)c4nc5c(n4C)CCN(C)C5)c3Cl)c2Cl)ccc1CN1CC2(C1)CN(C(C)=O)C2` [Embodiment 123, N-(3′-(5-((6-Acetyl-2,6-diazaspiro[3.3]heptan-2-yl)methyl)-6-methoxypyridin-2-yl)-2,2′-dichloro-[1,1′-biphenyl]-3-yl)-1,5-dimethyl-4,5,6,7-tetrahydro-1H-imidazo[4,5-c]pyridine-2-carboxamide], the “TGI (%) Day 15” value ([2]; 10 mpk po bid, n=8) is reported as 63.70%, the “Tumor volume (mm^3, Mean ± SD) Day 1” value ([2]; 10 mpk po bid, n=8) is reported as 75.93 ± 26.17 mm^3 and the “Tumor volume (mm^3, Mean ± SD) Day 14” value ([2]; 10 mpk po bid, n=8) is reported as 644.86 ± 398.92 mm^3. For the same molecule, the “ΔT/ΔC (%) Day 15” value ([2]; 10 mpk po bid, n=8) was 36.30%, the “TGI (%) Day 15” value ([2]; 30 mpk po qd, n=8) was 67.62% and the “Tumor volume (mm^3, Mean ± SD) Day 1” value ([2]; 30 mpk po qd, n=8) was 75.50 ± 25.70 mm^3. For the same molecule, the “Tumor volume (mm^3, Mean ± SD) Day 14” value ([2]; 30 mpk po qd, n=8) was 582.87 ± 359.11 mm^3, the “ΔT/ΔC (%) Day 15” value ([2]; 30 mpk po qd, n=8) was 32.38% and the Kp [1] was 2.8. The “Drug concentration in plasma” value [1] was 821 ng/mL and the “Drug concentration in tumor” value [1] was 2285 ng/mL.

For `COc1nc(-c2cccc(-c3cccc(NC(=O)c4nc5c(n4C)CCN(C)C5)c3Cl)c2Cl)cnc1CN1CC2(C1)CN(C(C)=O)C2` [Embodiment 152, N-(3′-(5-((6-Acetyl-2,6-diazaspiro[3.3]heptan-2-yl)methyl)-6-methoxypyrazin-2-yl)-2,2′-dichloro-[1,1′-biphenyl]-3-yl)-1,5-dimethyl-4,5,6,7-tetrahydro-1H-imidazo[4,5-c]pyridine-2-carboxamide], the Kp [1] was 4.6, the “Drug concentration in plasma” value [1] was 153 ng/mL and the “Drug concentration in tumor” value [1] was 707 ng/mL.

With `COc1nc(-c2cccc(-c3cccc(NC(=O)c4nc5c(n4C)CCN(C)C5)c3Cl)c2Cl)ccc1CN1CC(O)(CO)C1` [Embodiment 173, N-(2,2′-Dichloro-3′-(5-((3-hydroxy-3-(hydroxymethyl)azetidin-1-yl)methyl)-6-methoxypyridin-2-yl)-[1,1-biphenyl]-3-yl)-1,5-dimethyl-4,5,6,7-tetrahydro-1H-imidazo[4,5-c]pyridine-2-carboxamide] the Kp [1] was 2.2, the “Drug concentration in plasma” value [1] was 291 ng/mL and the “Drug concentration in tumor” value [1] was 628 ng/mL.

For `COc1nc(-c2cccc(-c3cccc(NC(=O)c4nc5c(n4C)CCN(C)C5)c3Cl)c2Cl)ccc1CNC(CO)CO` [Embodiment 174, N-(2,2′-Dichloro-3′-(5-(((1,3-dihydroxypropan-2-yl)amino)methyl)-6-methoxypyridin-2-yl)-[1,1′-biphenyl]-3-yl)-1,5-dimethyl-4,5,6,7-tetrahydro-1H-imidazo[4,5-c]pyridine-2-carboxamide], the Kp [1] was 2.4, the “Drug concentration in plasma” value [1] was 291 ng/mL and the “Drug concentration in tumor” value [1] was 697 ng/mL.

In the case of `COc1nc(-c2cccc(-c3cccc(NC(=O)c4nc5c(n4C)CCN(C)C5)c3Cl)c2Cl)ccc1CN1CC(C(=O)N(C)C)C1` [Embodiment 183, N-(2,2′-Dichloro-3′-(5-((3-(dimethylcarbamoyl)azetidin-1-yl)methyl)-6-methoxypyridin-2-yl)-[1,1′-biphenyl]-3-yl)-1,5-dimethyl-4,5,6,7-tetrahydro-1H-imidazo[4,5-c]pyridine-2-carboxamide], the Kp [1] is reported as 2.3, the “Drug concentration in plasma” value [1] is reported as 309 ng/mL and the “Drug concentration in tumor” value [1] is reported as 697 ng/mL.

In the case of `COc1nc(-c2cccc(-c3cccc(NC(=O)c4nc5c(n4C)CCN(C)C5)c3Cl)c2Cl)ncc1CN1CC(CO)C1` [Embodiment 223, N-(2,2′-Dichloro-3′-(5-((3-(hydroxymethyl)azetidin-1-yl)methyl)-4-methoxypyrimidin-2-yl)-[1,1′-biphenyl]-3-yl)-1,5-dimethyl-4,5,6,7-tetrahydro-1H-imidazo[4,5-c]pyridine-2-carboxamide], the IC50 (hERG potassium channel) is reported as 14.8 µM, the Kp [1] is reported as 3.5 and the “Drug concentration in plasma” value [1] is reported as 432 ng/mL. The “Drug concentration in tumor” value [1] was 1504 ng/mL.
